In patent US20030118525A1, “Treatment of uv induced immunosuppression” (priority 2000, published 2003):

Tests used:
[1] = tested on: mice irradiated with simulated solar UV radiation (SSUV); test: Erythema/oedema as mid-dorsal skinfold thickness after simulated solar UV radiation; format: in vivo
Procedure: (§1) 1.1 Solar simulated radiation (SSUV) was produced from a filtered fluorescent tube source, and was administered at the rate of 1 MED daily for 3Days.
1.2 Erythema was measured as a mid-dorsal skinfold thickness, which comprises mostly the oedema component of erythema.
(§2) Carnosine incorporated into cosmetic creams at 0.1% and 1.00%, was compared with a cream containing 0.1% acetylcarnosine and a control cream containing neither carnosine nor acylcarnosine. The creams were applied daily (100 μl per mouse) immediately following irradiation with 1 MED of simulated solar UV radiation on 3 consecutive days only.
The sunburn (erythema) response was measured in mice by the oedema component at the peak of the erythema (48 h after the first UV exposure).

collagen in mouse skin = test: Collagen cross-linking by UV (solar) irradiation in mouse skin; conditions: 1-2 μM
Excerpt: (§3) 1.4 Collagen cross-linking by UV (solar) irradiation was achieved as described in WO 90/06102.

[2] = tested on: collagen in human fibroblasts; test: Collagen cross-linking by UV (solar) irradiation in human fibroblasts in vitro; format: cell-based; conditions: 1-2 μM
Excerpt: as §3

[3] = tested on: mice irradiated with simulated solar UV radiation (SSUV); test: Contact hypersensitivity to oxazolone after SSUV irradiation (ear swelling); format: in vivo; conditions: 0.1% cream; in words
Procedure: as §1
1.3 Contact hypersensitivity was induced by application of 100 μl 0.2% w/v oxazolone in ethanol, to the abdominal skin of groups of 6 mice. The mice were challenged by application of 5 μl of fresh oxazolone/ethanol to each surface of both pinnae one week later, and the ear swelling response was measured 24 h later.
as §2

[4] = tested on: collagen in mouse fibroblasts; test: Collagen cross-linking by UV (solar) irradiation in mouse fibroblasts in vitro; format: cell-based; conditions: 1-2 μM
Excerpt: as §3

## CC(=O)NCCC(=O)N[C@@H](Cc1cnc[nH]1)C(=O)O [acetylcarnosine, N-acetylcarnosine]
[1]; 0.1% cream, 100 μl per mouse daily immediately after 1 MED SSUV on 3 days, measured at 48 h, base + SSUV 30.2
  % increase in skinfold thickness: 11.3%
[1]; creams applied after SSUV, 48 h after the first UV exposure, in words
  sunburn (erythema) response, oedema component at peak of erythema: significant reduction
Collagen in mouse skin
  inhibition of cross linking of collagen by UV (solar) irradiation: completely inhibited
[2]
  inhibition of cross linking of collagen by UV (solar) irradiation: completely inhibited
[3]
  protection against suppression of contact hypersensitivity resulting from UV irradiation: totally prevented
[4]
  inhibition of cross linking of collagen by UV (solar) irradiation: completely inhibited
